Data set [1] in a line: Thermogravimetric analysis (TGA) of polymers. In kind it is physicochemical. From the text:
Ethyl glyoxylate in toluene solution (50% w/w), phenyl isocyanate, dibutyltin dilaurate (DBTL), benzyl chloroformate, 4-dimethylaminopyridine (DMAP), 4-bromomethyl-3-nitrobenzoic acid, methanesulfonyl chloride and benzyl bromide were obtained from Alfa Aesar (Canada). Fumaric acid and maleic acid were purchased from Acros Organics (USA). 6-Nitroveratryl chloroformate (NVOC-Cl) was obtained from Chem-Impex International, Inc. (USA). Propargyl amine was purchased from AK Scientific, Inc. (USA). 4-(Hydroxymethyl)phenylboronic acid pinacol ester and hydrogen peroxide solution (50 wt %) in water, hydrazine hydrate, dimethyl sulfide, sodium azide (NaN3), tin (II)chloride dehydrate, phosgene solution (15 wt. % in toluene), nile red and poly(ethylene glycol) methyl ether (MW=5000 g/mol, 2000 g/mol and 750 g/mol) were purchased from Sigma-Aldrich (USA). 1-Ethyl-3-(3-dimethylaminopropyl) carbodiimide hydrochloride (EDC.HCl) was purchased from Creo Salus (USA). Thionyl chloride (Alfa Aesar) was distilled under argon prior to use. Triethylamine (Et3N), pyridine, and dichloromethane were distilled from calcium hydride before use. Anhydrous tetrahydrofuran (THF) and N,N-dimethylformamide (DMF) were obtained from a solvent purification system using aluminum oxide columns. All the other chemicals were of reagent grade and used without further purification. ^1H NMR spectra were obtained in CDCl3 at 400 MHz or 600 MHz on Varian Inova instruments. NMR chemical shifts (δ) are reported in ppm and are calibrated against residual solvent signals of CDCl3 (δ 7.27), acetonitrile-d3 (δ 1.94), DMSO-d6 (δ 2.50) or deuterium oxide (δ 4.75). Fourier transform infrared spectra (FT-IR) were obtained using a Bruker tensor 27 instrument with films drop cast from CH2Cl2 on KBr plates. High-resolution mass spectrometry (HRMS) was performed using a Finnigan MAT 8400 electron impact (EI) mass spectrometer. The SEC instrument was equipped with a Viscotek GPC Max VE2001 solvent module. Samples were analyzed using the Viscotek VE3580 RI detector operating at 30° C. The separation technique employed two Agilent Polypore (300×7.5 mm) columns connected in series and to a Polypore guard column (50×7.5 mm). Samples were dissolved in THF (glass distilled grade) in approximately 5 mg/mL concentrations and filtered through 0.22 μm syringe filters. Samples were injected using a 100 μL loop. The THF eluent was filtered and eluted at 1 ml/min for a total of 30 minutes. A calibration curve was obtained from Polystyrene samples with molecular weight ranges of 1,540-1,126,000/mol Differential scanning calorimetry (DSC) and thermogravimetric analysis (TGA) were performed on a Mettler Toledo DSC 822e. For TGA the heating rate was 10° C./min between 50-400° C. under nitrogen. For DSC, the heating/cooling rate was 10° C./min from −100 to +17° C. Glass transition temperatures were obtained from the second heating cycle. Ultrapure water was obtained from a Barnstead EASYpure II system. Dialyses were performed using Spectra/Por regenerated cellulose membranes with 3500 g/mol MWCO.

Data set [2] in a line: Nile red encapsulation and triggered release from micelles. The conditions noted are these: dissolved in ethanol, same irradiation periods.
Data set [3] is described as follows: NMR degradation study of the micelles. The format is physicochemical. The conditions noted are these: over 24 h at 37° C., pH 7.4 buffered D2O. Here is the method:
16 mg of block copolymer 21 b was fully dissolved in 0.8 mL of DMSO-d6. 0.2 mL of the resulting solution was rapidly injected into 1.0 mL of 100 mM, pH 7.4 phosphate or 100 mM, pH 5.0 citrate buffered D2O. After stirring for 0.5 h, the micelle suspension was transferred into two NMR tubes. One tube was then irradiated for 10 min in with UV light (wavelength: 300-350 nm, 23 mW cm^−2), while the other one was kept in the dark. A ^1H NMR spectrum was obtained immediately following irradiation (10 min time point in the graph), then the samples were incubated at 37° C. and spectra were obtained at regular intervals over 24 h. Complete depolymerization was confirmed for the irradiated sample as the sum of the integration of the methyl peaks corresponding to EtGH and ethanol (1.0-1.2 ppm) plateaud at a very similar (1198) value to that of the methyl peak at 1.17-1.45 ppm in the block copolymer 21b taken in CDCl3 (integration 1152) when setting the PEG peak integral to 364. The % polymer remaining was calculated as 100−(sum of integration from 1.0-1.2 ppm/1198))*100.

Regarding poly(benzyl glyoxylate) [Polymer 13], in data set [1], the “To (onset degradation temperature)” value turned out to be 195 °C and the “Tp (peak degradation temperature)” value turned out to be 229 °C.

As for `CCN(CC)c1ccc2nc3c4ccccc4c(=O)cc-3oc2c1` [nile red], the “Change of fluorescence intensity on irradiation (photostability)” value in data set [2] is “no detectable decrease in intensity”.

For the compound “PEtG-co-poly(n-butyl glyoxylate) [Polymer 15]”, in data set [1], the “To (onset degradation temperature)” value was 208 °C and the “Tp (peak degradation temperature)” value was determined as 236 °C.

As to `CCOC(=O)C=O.O` [EtGH, ethyl glyoxylate hydrate], in data set [3], the “Hydrolysis to glyoxylic acid and ethanol” value is around 45%.

“PEtG-co-poly(methyl glyoxylate) [Polymer 14]”: in data set [1], the “To (onset degradation temperature)” value amounted to 181 °C and the “Tp (peak degradation temperature)” value came out at 203 °C.

The record behind these values is patent US10214609B2, “Polyglyoxylates, manufacture and use thereof” (THE UNIVERSITY OF WESTERN ONTARIO, priority 2014, dated 2019).
